Measured values published in US20130336899A1, “ANTIMICROBIAL FORMULATIONS THAT AID IN WOUND HEALING” (Purdue Research Foundation, priority 2010, published 2013).

How the values were obtained:
Format in all cases: cell-based
[1] = tested on: bacteria; assay: Cell viability with vital stain (propidium iodide, PI); conditions: thymol 2.66 mM, sucrose 1.17 OsM; after 1 hr
Excerpt: FIG. 3A. Photomicrographs of cells that were: untreated; or treated with sucrose, or thymol or sucrose and thymol (S+T).

[2] = tested on: bacteria; assay: Bactericidal action of hypertonic sucrose with or without membrane permeabilizing agent
[3] = tested on: bacteria; assay: Bactericidal log reduction after 10 and 60 min treatment; conditions: for Log Red - 10 min: 10 min treatment; for Log Red - 60 min: 60 min treatment
Description: Referring now to FIG. 4, the bactericidal effect of osmopermeation is fast acting and occurs in less than 10 minutes, as shown. Finally, osmopermeation is wide spectrum in nature and effective in treating both Gram (+) and Gram (−) bacterial strains.

[4] = tested on: bacteria; assay: Measurement of 260/280 nm absorbing material (bacteriolysis, loss of intracellular proteins); conditions: sucrose 1.17 OsM, thymol 2.66 mM
[5] = tested on: MRSA; assay: Dose response, MIC and combination index, 24 hrs of treatment; conditions: thymol emulsion
Excerpt: (§1) Responses represent 24 hrs of treatment. Six specific combinations (S+T) of sucrose and thymol are also plotted for each strain. The effect level (Fa) represents a value between 0 and 1.0 with 0 being no effect and 1.0 being all cells affected. (B) Normalized isobolograms defining the interaction between S and T. Numbered points correspond to the specific combinations enumerated in the table. Table denotes the minimum inhibitory concentrations (MICs) for each treatment as well as outcomes of the six S+T combinations. The nature of the two-treatment interaction is measured via the combination index (CI). The CI<1 is roughly defined as synergistic, ˜1 is additive and CI>1 is antagonistic. See Chou T C. “Theoretical basis, experimental design and computerized simulation of synergism and antagonism in drug combination studies”. Pharmacol. Rev. 2006; […]:621-81. Synergistic interactions were found in combinations with various hyperosmotic pressures and concentrations of the membrane permeabilizing agent.
(§2) Data collected with 4 strains of bacterial E. coli, E, faecalis, S. aureus and MRSA.

[6] = tested on: E. faecalis; assay: as above; conditions: thymol emulsion
Excerpt: as §1, §2

[7] = tested on: S. aureus; assay: as above; conditions: thymol emulsion
Excerpt: as §1, §2

[8] = tested on: E. coli; assay: as above; conditions: thymol emulsion
Excerpt: as §1, §2

SMILES | effect on cell viability (PI vital stain) [1] | bactericidal effect [2] | Log Red - 10 min [3] | Log Red - 60 min [3] | 280 nm (A.U.) ([4]; absorbing material released) | absorbance at 260 nm ([4]; absorbing material released) | 260/280 nm ([4]; ratio of absorbances) | MICT [5] | MICT [6] | MICT [7] | MICT [8]
OC[C@H]1O[C@@](CO)(O[C@H]2O[C@H](CO)[C@@H](O)[C@H](O)[C@H]2O)[C@@H](O)[C@@H]1O [Sucrose (S), sucrose] | little effect on cell viability | no bactericidal effect and actually permits cell proliferation | <0.5 | <0.2 | – | – | – | – | – | – | –
Cc1ccc(C(C)C)c(O)c1 [Thymol (T), 2-isopropyl-5-methylphenol] | little effect on cell viability | no significant bactericidal effect | ~6.4 | ~6.7 | 1.02 A.U. | .99 A.U. | 0.97 | 1.65 mM | 2.60 mM | 1.65 mM | 2.60 mM
